Data on 15 molecules can be found in patent publication US10905665B2, “Chemical modulators of signaling pathways and therapeutic use” (Duke University, priority 2015, dated 2021).

This test relates to Wnt/β-catenin transcription. As to the kind of experiment: Wnt-3A-stimulated TOPFlash reporter assay in HEK293 cells. Type of test: cell-based. Conditions: for IC50 / inhibition at 2 µM: Homo sapiens, HEK293, 8 h; for IC50: Wnt-3A conditioned medium, 8 hour treatment, read-out: Inhibition Wnt/β-catenin transcription TopFlash IC50. The protocol: Stably transfected cells were seeded in 100 μl of cell growth medium/well in 96-well plates at 100% confluency. Fifty microliters of Wnt-3A conditioned medium containing the chemical compounds to be tested or DMSO was added to each well. After an 8 hour treatment, the cells were washed once with PBS and lysed with 55 μl of Passive Lysis Buffer supplied in the Dual-Luciferase Reporter Assay kit (Promega, Madison, Wis.). Twenty-five microliters of cell lysate was used for measuring luciferase activity in a 96-well plate reader (FluoStar Optima, BMG Labtech, Chicago, Ill.). Data were fit using GraphPad Prism (mean±SEM, n>=2).

Consider `CCCCCCC(=O)Oc1ccc(Cl)cc1C(=O)Nc1ccc([N+](=O)[O-])cc1Cl` [Compound 63, 4-chloro-2-((2-chloro-4-nitrophenyl)carbamoyl)phenyl heptanoate], for which the IC50 was 0.5 µM.
As to `O=C(Nc1ccc([N+](=O)[O-])cc1Cl)c1cc(Cl)ccc1OC(=O)N1CCOCC1` [Compound 71, 4-chloro-2-((2-chloro-4-nitrophenyl)carbamoyl)phenyl morpholine-4-carboxylate], the “Inhibition Wnt/β-catenin transcription TopFlash, % inhibition @ 20 μM” value (20 μM) stood at 60% inhibition.
For the molecule `O=c1oc2ccc(Cl)cc2c(=O)n1-c1ccc(C(F)(F)F)cc1F` [Compound 76, 6-chloro-3-(2-fluoro-4-(trifluoromethyl)phenyl)-2H-benzo[e][1,3]oxazine-2,4(3H)-dione], the “Inhibition Wnt/β-catenin transcription TopFlash, % inhibition @ 1 μM” value is listed as 90% @ 1 μM.
On to `O=c1oc2ccc(Cl)cc2c(=O)n1-c1ccc([N+](=O)[O-])cc1Cl` [Compound 75, 6-chloro-3-(2-chloro-4-nitrophenyl)-2H-benzo[e][1,3]oxazine-2,4(3H)-dione], for which the IC50 worked out at 0.37 ± 0.13 µM.
In the case of `CCCCCCCCOC(=O)Oc1ccc(Cl)cc1C(=O)Nc1ccc([N+](=O)[O-])cc1Cl` [Compound 72, 4-chloro-2-((2-chloro-4-nitrophenyl)carbamoyl)phenyl octyl carbonate], the IC50 amounted to 0.5 µM.
For `O=C(CCCCCN1C(=O)C=CC1=O)Oc1ccc(Cl)cc1C(=O)Nc1ccc([N+](=O)[O-])cc1Cl` [Compound 67, 4-chloro-2-((2-chloro-4-nitrophenyl)carbamoyl)phenyl 6-(2,5-dioxo-2,5-dihydro-1H-pyrrol-1-yl)hexanoate], the “Inhibition Wnt/β-catenin transcription TopFlash, % inhibition @ 0.5 μM” value stood at 75% inhibition.
`Cc1ccc(S(=O)(=O)Nc2ccccc2C(=O)Nc2ccc([N+](=O)[O-])cc2)cc1` [C, 2-((4-methylphenyl)sulfonamido)-N-(4-nitrophenyl)benzamide, reference compound]: the “Inhibition Wnt/β-catenin transcription TopFlash, % inhibition @ 1 μM” value was 47% inhibition.
Usually inhibition stands for the drop in the measured response relative to a control, in per cent. Low readings indicate a weak effect, high ones a strong effect. On to `C#CCCCCOc1cc([N+](=O)[O-])ccc1NC(=O)c1cc(Cl)ccc1O` [Compound 39, 5-chloro-N-(2-(hex-5-yn-1-yloxy)-4-nitrophenyl)-2-hydroxybenzamide], for which the inhibition at 2 µM was determined as 80%.
In the case of `CCCCCCCCOC(=O)O/C(=N/c1ccc([N+](=O)[O-])cc1Cl)c1cc(Cl)ccc1OC(=O)OCCCCCCCC` [Compound 79, 5-chloro-N-(2-chloro-4-nitrophenyl)-2-(((octyloxy)carbonyl)oxy)benzimidic (octyl carbonic) anhydride], the IC50 was 0.8 µM.
For the molecule `CCCCC/C=C\C/C=C\CCCCCCCC(=O)Oc1ccc(Cl)cc1C(=O)Nc1ccc([N+](=O)[O-])cc1Cl` [Compound 69, 4-chloro-2-((2-chloro-4-nitrophenyl)carbamoyl)phenyl (9Z,12Z)-octadeca-9,12-dienoate], the inhibition at 2 µM is 85%.
The molecule `O=C(Nc1ccc(Br)cc1)c1cc(Br)ccc1O` [D, 5-bromo-N-(4-bromophenyl)-2-hydroxybenzamide, reference compound] had an inhibition at 2 µM of 60%.
Regarding `O=C(Nc1ccc(C(F)(F)F)cc1Cl)c1cc2ccccc2cc1O` [Compound 44, N-(2-chloro-4-(trifluoromethyl)phenyl)-3-hydroxy-2-naphthamide], the “Inhibition Wnt/β-catenin transcription TopFlash, % inhibition @ 5 μM” value (5 μM) amounted to 80% inhibition.
Turning to `O=C(Nc1ccc([N+](=O)[O-])cc1Cl)c1cc(-c2ccccc2)ccc1O` [Compound 41, N-(2-chloro-4-nitrophenyl)-4-hydroxy-[1,1′-biphenyl]-3-carboxamide], the “Inhibition Wnt/β-catenin transcription TopFlash, % inhibition @ 1 μM” value turned out to be 90% inhibition.
Molecule `O=C(Nc1ccc(C(F)(F)F)c(Cl)c1)c1cc(Cl)ccc1O` [Compound 38, 5-chloro-N-(3-chloro-4-(trifluoromethyl)phenyl)-2-hydroxybenzamide] gave an inhibition at 2 µM of 90%.
`CC(C)(C)OC(=O)CCC(=O)Oc1ccc(Cl)cc1C(=O)Nc1ccc([N+](=O)[O-])cc1Cl` [Compound 65, tert-butyl (4-chloro-2-((2-chloro-4-nitrophenyl)carbamoyl)phenyl) succinate]: the “Inhibition Wnt/β-catenin transcription TopFlash, % inhibition @ 0.5 μM” value was determined as 60% inhibition.
